# US20060293291A1, “2-Propylidene-19-nor-vitamin d compounds” (priority 2003, published 2006)
# Biological target: T1, recombinantly produced rat receptor (1α,25-dihydroxyvitamin D receptor) (Rattus norvegicus, UniProt P13053)
# T1 construct: made in house
# T1 sequence (P13053 1-423): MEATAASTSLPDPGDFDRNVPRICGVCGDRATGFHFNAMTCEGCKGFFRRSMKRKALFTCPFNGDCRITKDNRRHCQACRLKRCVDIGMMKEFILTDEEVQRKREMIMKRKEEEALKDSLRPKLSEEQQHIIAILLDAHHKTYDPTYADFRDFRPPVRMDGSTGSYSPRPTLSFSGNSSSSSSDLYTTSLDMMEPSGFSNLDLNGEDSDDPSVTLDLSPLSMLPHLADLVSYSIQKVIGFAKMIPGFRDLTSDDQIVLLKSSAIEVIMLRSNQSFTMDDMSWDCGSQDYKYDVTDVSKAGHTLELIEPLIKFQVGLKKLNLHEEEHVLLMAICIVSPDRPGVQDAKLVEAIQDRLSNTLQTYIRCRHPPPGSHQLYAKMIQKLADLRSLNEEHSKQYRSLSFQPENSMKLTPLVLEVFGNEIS
# Test: Competitive VDR binding
# Details: FIGS. 1 and 2
# Procedure: FIGS. 1 and 2—Competitive VDR Binding
# Competitive binding of the analogs to the porcine intestinal receptor was carried out by the method described by Dame et al (Biochemistry 25, 4523-4534, 1986), except the recombinantly produced rat receptor was used as the receptor (see Vanhooke et al., Biochemistry, in press, 2004).
row,"activity in binding to the 1α,25-hydroxyvitamin D3 rat receptor",Compound
1,very active,"2-[(3′-methoxymethoxy)propylidene]-19-nor-1α,25-dihydroxyvitamin D3 [F-Wit]"
2,very active,"(20R)-1α,25-dihydroxy-2-[3′-hydroxypropylidene]-19-norvitamin D3 [1AGR]"
3,very active,"(20S)-1α,25-dihydroxy-2-[3′-hydroxypropylidene]-19-norvitamin D3 [1AGS]"

# Tested on: 24-hydroxylase (24OHase) gene promoter
# Test: Transcription activation, 24-hydroxylase promoter luciferase reporter in ROS 17/2.8 (bone) cells
# Assay type: cell-based
# Details: ROS 17/2.8 cells, luciferase 16 hours after dosing, FIG. 4
# Procedure: FIG. 4—Transcription Activation
# Transcriptional activity was measured in ROS 17/2.8 (bone) cells that were stably transfected with a 24-hydroxylase (24OHase) gene promoter upstream of a luciferase reporter gene (Arbour et al., 1998). Cells were given a range of doses. Sixteen hours after dosing the cells were harvested and luciferase activities were measured using a luminometer.
# “RLU” in FIG. 4 refers to relative luciferase units.
row,Compound,transcriptional activity in bone cells
1,"2-[(3′-methoxymethoxy)propylidene]-19-nor-1α,25-dihydroxyvitamin D3 [F-Wit]",significant transcriptional activity
2,"(20R)-1α,25-dihydroxy-2-[3′-hydroxypropylidene]-19-norvitamin D3 [1AGR]",significant transcriptional activity
3,"(20S)-1α,25-dihydroxy-2-[3′-hydroxypropylidene]-19-norvitamin D3 [1AGS]",significant transcriptional activity

# Tested on: human leukemia cells (HL-60 cells)
# Test: HL-60 cell differentiation (NBT reduction)
# Assay type: cell-based
# Details: HL-60 cells to monocytes, NBT assay, FIG. 3
# Procedure: FIG. 3—EL-60 Cell Differentiation
# The differentiation of HL-60 promyelocytic into monocytes was determined as described by Ostrem et al (J. Biol. Chem. 262, 14164-14171, 1987).
# Differentiation activity was assessed by a standard differentiation assay, abbreviated as NBT reduction (nitroblue tetrazolium reduction). The assay was conducted according to known procedures, as given, for example, by DeLuca et al U.S. Pat. No. 4,717,721 and Ostrem et al, J. Biol. Chem. 262, 14164, 1987. For the assay, the differentiation activity of the test compounds is expressed in terms of the percent of HL-60 cells having differentiated to normal cells in response to a given concentration of test compound.
row,Compound,potency in promoting the differentiation of leukemia cells
1,"2-[(3′-methoxymethoxy)propylidene]-19-nor-1α,25-dihydroxyvitamin D3 [F-Wit]","as potent as 1α,25-dihydroxyvitamin D3 and 2MD"
2,"(20R)-1α,25-dihydroxy-2-[3′-hydroxypropylidene]-19-norvitamin D3 [1AGR]","as potent as 1α,25-dihydroxyvitamin D3 and 2MD"
3,"(20S)-1α,25-dihydroxy-2-[3′-hydroxypropylidene]-19-norvitamin D3 [1AGS]","as potent as 1α,25-dihydroxyvitamin D3 and 2MD"

# Same assay, conditions: NBT assay, concentration 1×10^−7 M
row,Compound,percent of HL-60 cells induced to differentiate
1,"2-[(3′-methoxymethoxy)propylidene]-19-nor-1α,25-dihydroxyvitamin D3 [F-Wit]",the same degree of differentiation
2,"C=C1/C(=C\C=C2/CCC[C@]3(C)[C@@H]([C@H](C)CCCC(C)(C)O)CC[C@@H]23)C[C@@H](O)C[C@@H]1O [1α,25-dihydroxyvitamin D3, reference compound]",~90%
3,"(20R)-1α,25-dihydroxy-2-[3′-hydroxypropylidene]-19-norvitamin D3 [1AGR]",the same degree of differentiation
4,"(20S)-1α,25-dihydroxy-2-[3′-hydroxypropylidene]-19-norvitamin D3 [1AGS]",the same degree of differentiation

# Tested on: intestinal calcium transport
# Test: Intestinal calcium transport, everted gut sac method
# Assay type: in vivo, Sprague-Dawley rats
# Details: rats, four consecutive ip doses, FIG. 5
# Procedure: (§1) FIGS. 5 and 6—Intestinal Calcium Transport and Bone Calcium Mobilization
# (§2) Male, weanling Sprague-Dawley rats were placed on Diet 11 (0.47% Ca) diet+AEK for one week followed by Diet 11 (0.02% Ca)+AEK for 3 weeks. The rats were then switched to a diet containing 0.47% Ca for one week followed by two weeks on a diet containing 0.02% Ca. Dose administration began during the last week on 0.02% calcium diet. Four consecutive ip doses-were given approximately 24 hours apart. Twenty-four hours after the last dose, blood was collected from the severed neck and the concentration of serum calcium determined as a measure of bone calcium mobilization. The first 10 cm of the intestine was also collected for intestinal calcium transport analysis using the everted gut sac method.
Compound,intestinal calcium transport activity,intestinal calcium transport activity compared with 2MD
"2-[(3′-methoxymethoxy)propylidene]-19-nor-1α,25-dihydroxyvitamin D3 [F-Wit]",relatively high intestinal calcium transport activity,more active than 2M
"(20R)-1α,25-dihydroxy-2-[3′-hydroxypropylidene]-19-norvitamin D3 [1AGR]",relatively high intestinal calcium transport activity,more active than 2M
"(20S)-1α,25-dihydroxy-2-[3′-hydroxypropylidene]-19-norvitamin D3 [1AGS]",relatively high intestinal calcium transport activity,more active than 2M

# Tested on: bone calcium mobilization
# Test: Bone calcium mobilization (serum calcium)
# Assay type: in vivo, Sprague-Dawley rats
# Details: rats, four consecutive ip doses, FIG. 6
# Procedure: as §1, §2
Compound,ability to mobilize calcium from bone,bone calcium mobilization compared with 2MD
"2-[(3′-methoxymethoxy)propylidene]-19-nor-1α,25-dihydroxyvitamin D3 [F-Wit]",significant ability to mobilize calcium from bone,less active in this regard than 2MD
"(20R)-1α,25-dihydroxy-2-[3′-hydroxypropylidene]-19-norvitamin D3 [1AGR]",significant ability to mobilize calcium from bone,less active in this regard than 2MD
"(20S)-1α,25-dihydroxy-2-[3′-hydroxypropylidene]-19-norvitamin D3 [1AGS]",significant ability to mobilize calcium from bone,less active in this regard than 2MD
